Measurements as given in patent publication US8901118B2, “Compounds and methods for kinase modulation, and indications therefor” (Plexxikon Inc., priority 2010, dated 2014).
pIC50: −log10 of the molar value.

Key:
[1] = biological target: T1, BCR-KIT BaF3 cells (Homo sapiens, UniProt P10721); test: BaF3 BCR-KIT cell proliferation assay (ATPlite); type: cell-based; conditions: read-out: Inhibition of Cell Proliferation IC50, BCR/BaF3 Kit
T1 construct: fused on or other part: P11274 (Breakpoint cluster region protein)
T1 sequence (P10721 589-937): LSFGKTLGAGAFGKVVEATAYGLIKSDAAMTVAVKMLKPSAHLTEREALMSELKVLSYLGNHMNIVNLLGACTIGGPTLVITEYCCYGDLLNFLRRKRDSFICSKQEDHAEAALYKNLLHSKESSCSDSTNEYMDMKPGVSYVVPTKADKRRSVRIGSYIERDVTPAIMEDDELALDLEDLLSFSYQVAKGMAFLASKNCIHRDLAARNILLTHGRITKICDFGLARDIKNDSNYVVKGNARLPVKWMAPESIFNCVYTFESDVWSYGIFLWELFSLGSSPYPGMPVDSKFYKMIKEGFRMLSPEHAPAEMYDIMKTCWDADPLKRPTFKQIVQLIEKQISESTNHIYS
Outline: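 BaF3 lines were seeded at 10,000 cells/well in growth medium with 1 mg/mL G418 but no IL-3, and MV-4-11 cells at 25,000 cells/well; plates were left overnight at 37 °C. Compounds were added as an 8-point 1:3 series with a top concentration of 10 μM and incubated 3 days. IC50 was taken from ATPlite luminescence.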

[2] = system: BCR-FMS BaF3 cells; test: Splenomegaly mouse model, BCR-FMS BaF3 cells; type: in vivo
Procedure: BaF3 cells are engineered with any of BCR-FMS, BCR-TRK1 or BCR-TRK2 to assess in vivo inhibitory effects of Fms, TrkA or TrkB inhibition, respectively. BaF3 cells are maintained in growth media (RPMI containing 10% FBS, 1% PenStrep, 1% NEAA, and 1% L-Glutamine, supplemented with 5% murine IL-3 and 1 mg/mL G418). Four days prior to start, 2×10^6 cells are inoculated into a T150 vented flask using the growth media and incubated at 37° C. in 5% CO2 for three days. One day prior to start, cells are collected by centrifugation and are suspended in growth media without IL-3. On the day of cell implant, the cells are collected by centrifugation, rinsed 3×20 mL with RPMI, then are suspended in 5.4 mL of media and counted, then adjusted with additional RPMI as needed to give 5×10^7 cells/mL. On day 1, female nu/nu mice at 5-6 weeks of age are injected intravenously with BaF3 cells injected injecting 0.1 mL (5×10^6) cells in the tail vein (mice without cell injected are included as control group). Compound stocks in dimethylsulfoxide are stored at room temperature protected from light. Stocks are diluted prior to dosing, diluting 22 μL of compound stock into 858 μL of diluent (or 50 μL into 1950 μL) to provide vehicle of 1.0% Polysorbate 80, 0.5% hydroxypropyl methyl cellulose, with final dimethylsulfoxide at 2.5% in all dosing suspensions and vehicle control. Dosing suspension is prepared prior to use, mixing by inversion and sonication in a water bath to make a uniform suspension. On days 10-18, mice are treated with vehicle only or the desired level of compound in vehicle, ˜0.2 mL per 25 gm mouse, once a day by oral gavage, or in some instances, twice per day. On day 18, mice are administered a final dose and two hours later a plasma sample is taken. At four hours following the final dose, mice are sacrificed, an additional plasma sample is collected and mouse spleens are removed and weighed. The average spleen weight of vehicle control group mice is compared to the average spleen weight of the test compound mice. Percent spleen growth inhibition is calculated as 100×[(spleen weight vehicle control-spleen weight test compound)/spleen weight vehicle control]. In some instances, the compounds were not tested in all of the assays as indicated by NA in the table below.

[3] = system: SKNSH cells; test: SKNSH (human neuroblastoma) cell proliferation assay (ATPlite); type: cell-based; conditions: SK-N-SH, read-out: Inhibition of Cell Proliferation IC50, SKNSH
Procedure: Compounds are assessed in a variety of cell based assays. For example BaF3 cells engineered with any of BCR-FMS, BCR-KIT, BCR-FLT3, BCR-NTRK1, BCR-NTRK2, and BCR-NTRK3, are used in cell proliferation assays to assess inhibitory activity of Fms, Kit, Flt-3, TrkA, TrkB, and TrkC, respectively. An MV-4-11 (leukemia) cell proliferation assay is used to assess inhibitory activity in Flt-3, and SKNSH (human neuroblastoma) cell proliferation assay is used to assess efficacy of Fms/Trk inhibitors. Additional cells may be assayed similarly to assess the efficacy of Fms/Trk inhibitors, such as MiaPaCa (human pancreatic cancer) and Capan-1 (human pancreatic carcinoma) cells. Reagent and assay conditions are as follows: • BaF3 cells: • Maintained in RPMI containing 10% FBS, 1% PenStrep, 1% NEAA, and 1% L-Glutamine, supplemented with 1 mg/mL G418 and 5% WEHI-CM (or recombinant murine IL-3). • Confluent cells are split 1:50 to 1:100 every 3-4 days. • MV-4-11 cells: • Maintained in Iscove's Modified Dulbecco's Medium containing 10% FBS. • Confluent cells are split 1:4 every 3-4 days. • SKNSH cells: RPMI containing 10% FBS. On day 1, cells are counted, then centrifuged in a conical tube for 5 minutes at 1000 rpm. The supernatant is removed and cells are re-suspended as follows: • BaF3: resuspend in growth media +1 mg/mL G418 (without WEHFIL-3) to 2×10^5 cells/mL. • MV-4-11: resuspend in growth media to 5×10^5 cells/mL. • SKNSH: resuspend in growth media to 2×10^4 cells/mL. The cells are plated (50 μL, 150 μL for SKNSH cells) in each well of a 96-well dish (Corning 3610) and incubated at 37° C. in 5% CO2 overnight, cells plated to a final concentration of cells as follows: • BaF3: 10,000 cells per well. • MV-4-11: 25,000 cells per well. • SKNSH: 3,000 cells per well. On day 2, compound at a maximum concentration of 5 mM is serially diluted 1:3 for a total of 8 point titration with DMSO as a control. A 1 μL aliquot of each dilution point is added to 249 μL growth media and 50 μL is added to a well containing cells, providing 10 μM compound for the maximum concentration point. The cells are incubated for 3 days at 37° C. in 5% CO2. For SKNSH cells, a 0.75 μL aliquot of appropriate dilution in DMSO is added to 150 μL of cells. On day 5, ATPlite 1 step Luminescence Assay System (Perkin Elmer #6016739) is brought to room temperature along with the cell cultures. ATPlite is added to each well as follows: • BaF3: 25 μL per well. • MV-4-11: 40 μL per well. • SKNSH: 20 μL per well. The cells are incubated at room temperature for 10 minutes, then luminescence is read on Safire reader. The measured luminescence correlates directly with cell number, such that the reading as a function of compound concentration is used to determine the IC50 value.
It is understood that the results of these assays may vary as assay conditions are varied. Inhibition levels determined under the conditions described herein represent a relative activity for the compounds tested under the specific conditions employed. The cell based assays are likely to show variability due to the complexity of the system and the sensitivity thereof to any changes in the assay conditions. […] Results for compounds that are tested and show substantially no inhibition below the highest tested concentration are represented as “-” in the tables below. In some instances, the compounds were not tested in all of the assays, or assay results were not valid, as indicated by NA in the tables below.

[4] = dosed once per day at 10 mg per kg

SMILES	pIC50 [1]	% spleen growth inhibition, Fms [2, 4] [%]	pIC50 [3]	% spleen growth inhibition, Fms ([2]; dosed at 5 mg/kg) [%]
Cc1cnc2[nH]cc(Cc3cnc(Nc4ccc(F)cc4)nc3)c2c1 [Compound P-3010, (4-Fluoro-phenyl)-[5-(5-methyl-1H-pyrrolo[2,3-b]pyridin-3-ylmethyl)-pyrimidin-2-yl]-amine]	> 6.00	47		
Fc1nc(NC2CCC(F)(F)CC2)ccc1Cc1c[nH]c2ncc(Cl)cc12 [Compound P-3013, [5-(5-Chloro-1H-pyrrolo[2,3-b]pyridin-3-ylmethyl)-6-fluoro-pyridin-2-yl]-(4,4-difluoro-cyclohexyl)-amine]	< 6.00	48		
O=C(c1ccc(NC2CCC(F)(F)CC2)nc1F)c1c[nH]c2ncnc(NCC(F)(F)F)c12 [Compound P-4061, [6-[(4,4-difluorocyclohexyl)amino]-2-fluoro-3-pyridyl]-[4-(2,2,2-trifluoroethylamino)-7H-pyrrolo[2,3-d]pyrimidin-5-yl]methanone]	< 6.00	48		
O=C(c1ccc(NC2CCC(F)(F)CC2)nc1F)c1c[nH]c2ncnc(NC3CC3)c12 [Compound P-4062, [4-(cyclopropylamino)-7H-pyrrolo[2,3-d]pyrimidin-5-yl]-[6-[(4,4-difluorocyclohexyl)amino]-2-fluoro-3-pyridyl]methanone]	> 6.00	76	> 6.00	
COc1ccc(Nc2ccc(C(=O)c3c[nH]c4ncnc(NCC(F)(F)F)c34)c(F)n2)cn1 [Compound P-4084, [2-fluoro-6-[(6-methoxy-3-pyridyl)amino]-3-pyridyl]-[4-(2,2,2-trifluoroethylamino)-7H-pyrrolo[2,3-d]pyrimidin-5-yl]methanone]	> 6.00	6.2	> 5.00	
O=C(c1ccc(Nc2ccc(C3CC3)nc2)nc1F)c1c[nH]c2ncnc(NCC(F)(F)F)c12 [Compound P-4090, [6-[(6-cyclopropyl-3-pyridyl)amino]-2-fluoro-3-pyridyl]-[4-(2,2,2-trifluoroethylamino)-7H-pyrrolo[2,3-d]pyrimidin-5-yl]methanone]	> 6.00		> 6.00	38
CNc1ncnc2[nH]cc(C(=O)c3ccc(NC4CCCCC4)nc3Cl)c12 [Compound P-4110, [2-chloro-6-(cyclohexylamino)-3-pyridyl]-[4-(methylamino)-7H-pyrrolo[2,3-d]pyrimidin-5-yl]methanone]	> 6.00	30	> 5.00	
Cc1ccc(Nc2ccc(C(=O)c3c[nH]c4ncnc(NCC(F)(F)F)c34)c(F)n2)cn1 [Compound P-4112, [2-fluoro-6-[(6-methyl-3-pyridyl)amino]-3-pyridyl]-[4-(2,2,2-trifluoroethylamino)-7H-pyrrolo[2,3-d]pyrimidin-5-yl]methanone]	< 6.00	9.5	> 5.00	
CCc1ccc(Nc2ccc(C(=O)c3c[nH]c4ncnc(NCC(F)(F)F)c34)c(F)n2)cn1 [Compound P-4120, [6-[(6-ethyl-3-pyridyl)amino]-2-fluoro-3-pyridyl]-[4-(2,2,2-trifluoroethylamino)-7H-pyrrolo[2,3-d]pyrimidin-5-yl]methanone]	> 6.00	37	> 6.00	
CCNc1ncnc2[nH]cc(C(=O)c3ccc(Nc4ccc(CC)nc4)nc3F)c12 [Compound P-4123, [4-(ethylamino)-7H-pyrrolo[2,3-d]pyrimidin-5-yl]-[6-[(6-ethyl-3-pyridyl)amino]-2-fluoro-3-pyridyl]methanone]	> 7.00		> 7.00	14
CCc1ccc(Nc2ccc(C(=O)c3c[nH]c4ncnc(NC)c34)c(F)n2)cn1 [Compound P-4124, [6-[(6-ethyl-3-pyridyl)amino]-2-fluoro-3-pyridyl]-[4-(methylamino)-7H-pyrrolo[2,3-d]pyrimidin-5-yl]methanone]	> 7.00	20	> 6.00	
